Source: patent US20230391845A1, “GLP-1, GIP AND GLUCAGON RECEPTOR TRIPLE AGONISTS” (priority 2020, published 2023)
Read-outs that look alike come from different tables or passages of the source. *1 amine or outer side, *2 acyl side, *3 side chain or, on linkers, in order; H or OH if unused. Where a SMILES comes first, the peptide text is derived from it. Side-chain parts run from the residue outwards. [ ]: non-standard residue; d: D form. The star is where a group is joined. C20 diacid = O=C(O)CCCCCCCCCCCCCCCCCCC(=O)*; γGlu = O=C(O)[C@H](CCC(=O)[*:2])N[*:1]; εLys = N[C@@H](CCCCN[*:1])C(=O)[*:2]; AEEA = NCCOCCOCC(=O)O; Aib = CC(C)(N)C(=O)O

How the values were obtained:
[1] = biological target: T1, human GIP receptor (Homo sapiens, UniProt P48546); assay: In vitro functional potency (CRE luciferase; whole cells), human GIPR; type: cell-based; details: BHK CRE luc2P hGIPR whole cells; Table 2; read-out: hGIPR CRE Luc EC50
T1 construct: expressed in transfected cells; host or cells: BHK cells (parent line BHKTS13) containing CRE luciferase
T1 sequence (P48546 22-466): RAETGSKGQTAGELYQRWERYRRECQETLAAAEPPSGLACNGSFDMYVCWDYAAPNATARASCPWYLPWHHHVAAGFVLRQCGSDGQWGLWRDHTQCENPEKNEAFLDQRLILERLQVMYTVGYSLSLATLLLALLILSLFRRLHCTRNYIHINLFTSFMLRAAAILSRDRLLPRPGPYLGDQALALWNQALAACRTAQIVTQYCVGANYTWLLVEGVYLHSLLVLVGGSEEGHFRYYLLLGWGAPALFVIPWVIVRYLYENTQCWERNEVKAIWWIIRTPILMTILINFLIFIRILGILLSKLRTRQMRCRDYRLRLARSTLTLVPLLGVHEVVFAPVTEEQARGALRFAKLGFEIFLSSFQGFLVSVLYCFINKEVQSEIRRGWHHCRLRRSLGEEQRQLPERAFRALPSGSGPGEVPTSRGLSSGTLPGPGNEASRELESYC

[2] = Pharmacokinetic study in minipigs, i.v. administration; design: species or system Göttingen minipigs; details: female, Göttingen, minipig, in vivo, iv
Procedure: The purpose of this example is to determine the half-life in vivo of the triple agonists as described herein after i.v. administration to minipigs, i.e. the prolongation of their time in the body and thereby their time of action. This is done in a pharmacokinetic (PK) study, where the terminal half-life of the triple agonist in question is determined. By terminal half-life is generally meant the period of time it takes to halve a certain plasma concentration, measured after the initial distribution phase.
Female Göttingen minipigs were obtained from Ellegaard Göttingen Minipigs (Dalmose, Denmark) approximately 7-14 months of age and weighing from approximately 16-35 kg were used in the studies. The minipigs were housed individually and fed restrictedly once daily with SDS minipig diet (Special Diets Services, Essex, UK).
After at 3 weeks of acclimatisation two permanent central venous catheters were implanted in vena cava caudalis in each animal. The animals were allowed 1 week recovery after the surgery, and were then used for repeated pharmacokinetic studies with a suitable wash-out period between successive dosings.
The animals were fasted for approximately 18 hours before dosing and from 0 to 4 hours after dosing, but had adlibitum access to water during the whole period.
Intravenous injections (the volume corresponding to usually 1.5-2 nmol/kg, for example 0.1 mL/kg) of the triple agonists were given through one catheter, and blood was sampled at predefined time points for up to 14 days post dosing (preferably through the other catheter). Blood samples (for example 0.8 mL) were collected in 8 mM EDTA buffer and then centrifuged at 4° C. and 1942 g for 10 minutes.
Plasma was pipetted into Micronic tubes on dry ice and kept at −20° C. until analysed for plasma concentration of the triple agonists using ELISA, or a similar antibody-based assay, or LCMS. Individual plasma concentration-time profiles were analysed by a non-compartmental model in Phoenix WinNonLin ver. 6.4. (Pharsight Inc., Mountain View, CA, USA), and the resulting terminal half-lives (harmonic mean) determined.

[3] = biological target: T2, human GLP-1 receptor (Homo sapiens, UniProt P43220); assay: In vitro functional potency (CRE luciferase; whole cells), human GLP-1R; type: cell-based
T2 construct: expressed in transfected cells; host or cells: BHK cells (parent line BHKTS13) containing CRE luciferase
T2 sequence (P43220 24-463): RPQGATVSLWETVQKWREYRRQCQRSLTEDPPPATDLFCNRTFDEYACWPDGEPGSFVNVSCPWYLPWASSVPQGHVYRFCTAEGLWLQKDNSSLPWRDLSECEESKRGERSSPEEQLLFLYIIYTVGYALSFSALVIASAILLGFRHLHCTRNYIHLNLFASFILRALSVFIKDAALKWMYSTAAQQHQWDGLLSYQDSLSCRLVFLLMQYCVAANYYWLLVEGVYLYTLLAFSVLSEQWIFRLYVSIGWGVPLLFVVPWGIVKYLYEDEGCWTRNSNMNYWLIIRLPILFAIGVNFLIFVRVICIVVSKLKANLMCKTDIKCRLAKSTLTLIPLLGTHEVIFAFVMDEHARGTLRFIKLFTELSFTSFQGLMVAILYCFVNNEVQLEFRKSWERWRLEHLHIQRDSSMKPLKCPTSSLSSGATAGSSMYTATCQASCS
Procedure: The purpose of this example is to test the functional activity, or potency, of the compounds in vitro at the human and mouse GLP-1, GIP, and Gcg receptors. The in vitro functional potency is the measure of target receptor activation in a whole cell assay.
In vitro functional potency was determined by measuring the response of the target receptor in a reporter gene assay in individual cell lines. The assay was performed in stably transfected BHK cell lines that expresses one of the following G-protein coupled receptors: human GLP-1 receptor, human GIP receptor, human Gcg receptor, mouse GLP-1 receptor, mouse GIP receptor, or mouse Gcg receptor; and where each cell line contains the DNA for the cAMP response element (CRE) coupled to a promoter and the gene for firefly luciferase (CRE luciferase). When the respective receptor is activated, it results in the production of cAMP, which in turn results in expression of the luciferase protein. When assay incubation is completed, luciferase substrate (luciferin) is added resulting in the enzymatic conversion of luciferin to oxyluciferin and producing bioluminescence. The luminescence is measured as the readout for the assay.
The cells lines used in these assays were BHK cells with BHKTS13 as a parent cell line. The cell lines were derived from a clone containing the CRE luciferase element and were established by further transfection with the respective receptor to obtain the relevant cell line.
The cells were cultured at 37° C. with 5% CO2 in Cell Culture Medium. They were aliquoted and stored in liquid nitrogen. The cells were kept in continuous culture and were seeded out the day before each assay.
GLP-1R and GcgR Cell Culture Medium consisted of DMEM medium with 10% FBS, 500 µg/mL G418, and 300 µg/mL hygromycin. GIPR Cell Culture Medium consisted of DMEM medium with 10% FBS, 400 µg/mL G418, and 300 µg/mL hygromycin. Assay Buffer consisted of DMEM w/o phenol red, 10 mM Hepes, 1× Glutamax, 1% ovalbumin, and 0.1% Pluronic F-68.
• 1) Cells were plated at 5000 cells/well and incubated overnight in the assay plate. • 2) Cells were washed once in DPBS. • 3) Stocks of the test compounds and reference compounds in concentrations ranging from 100-300 pM were diluted 1:150 in Assay Buffer.
The data from the microtiter plate reader was first regressed in an Excel in order to calculate the x-axis, log scale concentrations based on the individual test compound's stock concentration and the dilutions of the assay. […] The software performs a non-linear regression (log(agonist) vs response). A minimum of two replicates was measured for each sample. The reported values are averages of the replicates.

[4] = Pharmacodynamic study in DIO mice, daily s.c. dosing over 13 days (body weight, food intake); type: in vivo, C57BL/6J male mice; details: for Absolute BW (grams) Day 0: Day 0 (baseline); for Cumulative food intake (grams) Day 13: mean ± SEM, n = 2
Procedure: The purpose of this example is to assess the in vivo effect of selected triple agonists on pharmacodynamic parameters in diet-induced obese (DIO) mice. The animals were treated once daily via subcutaneous injection with a liquid formulation of the triple agonist to be tested to assess effects on body weight, foot intake, and glucose tolerance.
C57BL/6J male mice were purchased from Jackson Laboratories at approximately 8 weeks of age. Mice were group housed and fed a high-fat, high-sugar diet from Research Diets (D12331). Mice were maintained on this diet for 12 weeks prior to initializing the pharmacology studies. Mice exceeding a measured body weight of 50 grams were considered diet-induced obese (DIO) and included in pharmacology studies. Mice were exposed to a controlled 12 h:12 h light:dark cycle at ambient room temperature (22° C.) with ab libitum access to food and water. Studies were approved by and performed according to the guidelines of the Institutional Animal Care and Use Committee of the University of Cincinnati.
All compounds in the study were formulated in the following buffer: 50 mM phosphate; 70 mM sodium chloride; 0.05% Tween-80, pH 7.4. Dosing solutions were formulated in glass vials and stored at 2-8° C. Dosing solutions were brought to room temperature before dosing and returned to 2-8° C. after dosing.
The animals were grouped to receive treatment as follows: Vehicle or GLP-1/GIP/Gcg receptor triple agonists as described herein, where vehicle is 50 mM phosphate, 70 mM sodium chloride; 0.05% (v/v) Tween-80, pH 7.4. The test compounds were dissolved in the vehicle, to stock concentrations of […], then diluted 50- to 200-fold in the vehicle to achieve the desired dosing solution concentrations. Animals were dosed subcutaneously once daily in the morning for each day of treatment with dosing solution at a volume of 2-5 μL per gram of body weight as necessary to achieve the desired dose (e.g. 0.3 nmol/kg, 1.0 nmol/kg, or 3.0 nmol/kg).
Body weight (BW) and food intake were measured immediately prior to dosing each day. The percent change in body was calculated individually for each mouse based on initial body weight prior to the first injection.

[5] = daily s.c. dosing over 13 days, compared to vehicle
[6] = BHK CRE luc2P hGLP-1R whole cells, Table 2, read-out: hGLP-1R CRE Luc EC50

CC[C@H](C)[C@H](NC(=O)[C@H](CO)NC(=O)[C@H](Cc1ccc(O)cc1)NC(=O)[C@H](CC(=O)O)NC(=O)[C@H](CO)NC(=O)[C@@H](NC(=O)[C@H](Cc1ccccc1)NC(=O)[C@@H](NC(=O)CNC(=O)[C@H](Cc1c[nH]cn1)NC(=O)C(C)(C)NC(=O)[C@@H](N)Cc1c[nH]cn1)[C@@H](C)O)[C@@H](C)O)C(=O)N[C@@H](CC(C)C)C(=O)N[C@@H](CC(C)C)C(=O)N[C@@H](CCC(=O)O)C(=O)N[C@@H](CCCCNC(=O)[C@@H](N)CCCCNC(=O)[C@@H](N)CCCCNC(=O)CC[C@H](NC(=O)CCCCCCCCCCCCCCCCCCC(=O)O)C(=O)O)C(=O)N[C@@H](CCC(N)=O)C(=O)N[C@@H](C)C(=O)N[C@@H](C)C(=O)N[C@@H](CCC(=O)O)C(=O)N[C@@H](CCC(=O)O)C(=O)N[C@@H](Cc1ccccc1)C(=O)N[C@H](C(=O)N[C@@H](CCC(N)=O)C(=O)N[C@@H](Cc1c[nH]c2ccccc12)C(=O)N[C@@H](CC(C)C)C(=O)N[C@@H](CC(C)C)C(=O)N[C@@H](CCC(=O)O)C(=O)NCC(=O)NCC(=O)N1CCC[C@H]1C(=O)N[C@@H](CO)C(=O)N[C@@H](CO)C(=O)NCC(=O)N[C@@H](C)C(=O)N1CCC[C@H]1C(=O)N1CCC[C@H]1C(=O)N1CCC[C@H]1C(=O)N[C@@H](CO)C(=O)O)C(C)C [Compound No. 50] (H-H[Aib]HGTFTSDYSILLEK([εLys-εLys-γGlu-C20 diacid])QAAEEFVQWLLEGGPSSGAPPPS-OH)
EC50 [1]: 1.9 pM

CC[C@H](C)[C@H](NC(=O)[C@H](CO)NC(=O)[C@H](Cc1ccc(O)cc1)NC(=O)[C@H](CC(=O)O)NC(=O)[C@H](CO)NC(=O)[C@@H](NC(=O)[C@H](Cc1ccccc1)NC(=O)[C@@H](NC(=O)CNC(=O)[C@H](Cc1c[nH]cn1)NC(=O)C(C)(C)NC(=O)[C@@H](N)Cc1c[nH]cn1)[C@@H](C)O)[C@@H](C)O)C(=O)N[C@@H](CC(C)C)C(=O)N[C@@H](CC(C)C)C(=O)N[C@@H](CCC(=O)O)C(=O)N[C@@H](CCCCNC(=O)[C@@H](N)CCCCNC(=O)[C@@H](N)CCCCNC(=O)CC[C@H](NC(=O)CCCCCCCCCCCCCCCCCCC(=O)O)C(=O)O)C(=O)N[C@@H](CCC(N)=O)C(=O)N[C@@H](C)C(=O)N[C@@H](C)C(=O)NC(C)(C)C(=O)N[C@@H](CCC(=O)O)C(=O)N[C@@H](Cc1ccccc1)C(=O)N[C@H](C(=O)N[C@@H](CCC(N)=O)C(=O)N[C@@H](Cc1c[nH]c2ccccc12)C(=O)N[C@@H](CC(C)C)C(=O)N[C@@H](CC(C)C)C(=O)N[C@@H](CCC(=O)O)C(=O)NCC(=O)NCC(=O)N1CCC[C@H]1C(=O)N[C@@H](CO)C(=O)N[C@@H](CO)C(=O)NCC(=O)N[C@@H](C)C(=O)N1CCC[C@H]1C(=O)N1CCC[C@H]1C(=O)N1CCC[C@H]1C(=O)N[C@@H](CO)C(N)=O)C(C)C [Compound No. 43] (H-H[Aib]HGTFTSDYSILLEK([εLys-εLys-γGlu-C20 diacid])QAA[Aib]EFVQWLLEGGPSSGAPPPS-NH2)
half-life ([2]; minipigs, i.v. administration, harmonic mean, read-out: Terminal half-life t1/2 (converted)): 71 h | EC50 [3]: 3 pM | Absolute BW (grams) Day 0 ([4]; 1.0 nmol/kg group): 60.4 ± 1.0 grams | Absolute BW (grams) Day 13 ([4]; 1.0 nmol/kg s.c. once daily): 48.7 ± 1.4 grams | Change in BW (%) Day 13 ([4]; 1.0 nmol/kg s.c. once daily): −19.4 ± 1.5% | Cumulative food intake (grams) Day 13 ([4]; 1.0 nmol/kg s.c. once daily): 21.1 ± 3.3 grams | Absolute BW (grams) Day 0 ([4]; 3.0 nmol/kg group): 60.1 ± 1.9 grams | Absolute BW (grams) Day 13 ([4]; 3.0 nmol/kg s.c. once daily): 36.3 ± 1.0 grams | Change in BW (%) Day 13 ([4]; 3.0 nmol/kg s.c. once daily): −39.5 ± 1.3% | Cumulative food intake (grams) Day 13 ([4]; 3.0 nmol/kg s.c. once daily): 11.5 ± 2.4 grams | reduction in body weight (in words) [4, 5]: superior reduction | reduction in food intake (in words) [4, 5]: superior reduction

CC(C)C[C@H](NC(=O)[C@H](CC(C)C)NC(=O)[C@H](Cc1c[nH]c2ccccc12)NC(=O)[C@H](CCC(N)=O)NC(=O)[C@@H](NC(=O)[C@H](Cc1ccccc1)NC(=O)[C@H](CCC(=O)O)NC(=O)C(C)(C)NC(=O)[C@H](C)NC(=O)[C@H](C)NC(=O)[C@H](CCCCN)NC(=O)[C@H](CCCCNC(=O)[C@@H](N)CCCCNC(=O)[C@@H](N)CCCCNC(=O)CC[C@H](NC(=O)CCCCCCCCCCCCCCCCCCC(=O)O)C(=O)O)NC(=O)[C@H](CCC(=O)O)NC(=O)[C@H](CC(C)C)NC(=O)[C@H](Cc1ccc(O)cc1)NC(=O)[C@H](Cc1ccc(O)cc1)NC(=O)[C@H](CO)NC(=O)[C@H](Cc1ccc(O)cc1)NC(=O)[C@H](CC(=O)O)NC(=O)[C@H](CO)NC(=O)[C@@H](NC(=O)[C@H](Cc1ccccc1)NC(=O)[C@@H](NC(=O)CNC(=O)[C@H](Cc1c[nH]cn1)NC(=O)C(C)(C)NC(=O)[C@@H](N)Cc1c[nH]cn1)[C@@H](C)O)[C@@H](C)O)C(C)C)C(=O)N[C@@H](CCC(=O)O)C(=O)NCC(=O)NCC(=O)N1CCC[C@H]1C(=O)N[C@@H](CO)C(=O)N[C@@H](CO)C(=O)NCC(=O)N[C@@H](C)C(=O)N1CCC[C@H]1C(=O)N1CCC[C@H]1C(=O)N1CCC[C@H]1C(=O)N[C@@H](CO)C(N)=O [Compound No. 31] (H-H[Aib]HGTFTSDYSYYLEK([εLys-εLys-γGlu-C20 diacid])KAA[Aib]EFVQWLLEGGPSSGAPPPS-NH2; N-terminus assumed)
half-life [2]: 55 h | EC50 [3, 6]: 3 pM

CC[C@H](C)[C@H](NC(=O)[C@H](CO)NC(=O)[C@H](Cc1ccc(O)cc1)NC(=O)[C@H](CC(=O)O)NC(=O)[C@H](CO)NC(=O)[C@@H](NC(=O)[C@H](Cc1ccccc1)NC(=O)[C@@H](NC(=O)CNC(=O)[C@H](CCC(N)=O)NC(=O)C(C)(C)NC(=O)[C@@H](N)Cc1ccc(O)cc1)[C@@H](C)O)[C@@H](C)O)C(=O)N[C@@H](Cc1ccc(O)cc1)C(=O)N[C@@H](CC(C)C)C(=O)N[C@@H](CC(=O)O)C(=O)N[C@@H](CCCCN)C(=O)N[C@@H](CCCCNC(=O)COCCOCCNC(=O)COCCOCCNC(=O)CC[C@H](NC(=O)CCCCCCCCCCCCCCCCCCC(=O)O)C(=O)O)C(=O)N[C@@H](C)C(=O)N[C@@H](C)C(=O)NC(C)(C)C(=O)N[C@@H](CCC(=O)O)C(=O)N[C@@H](Cc1ccccc1)C(=O)N[C@H](C(=O)N[C@@H](CC(N)=O)C(=O)N[C@@H](Cc1c[nH]c2ccccc12)C(=O)N[C@@H](CC(C)C)C(=O)N[C@@H](CC(C)C)C(=O)N[C@@H](C)C(=O)NCC(=O)NCC(=O)N1CCC[C@H]1C(=O)N[C@@H](CO)C(=O)N[C@@H](CO)C(=O)NCC(=O)N[C@@H](C)C(=O)N1CCC[C@H]1C(=O)N1CCC[C@H]1C(=O)N1CCC[C@H]1C(=O)N[C@@H](CO)C(N)=O)C(C)C [Compound No. 9] (H-Y[Aib]QGTFTSDYSIYLDKK([AEEA-AEEA-γGlu-C20 diacid])AA[Aib]EFVNWLLAGGPSSGAPPPS-NH2)
half-life [2]: 103 h | EC50 [3, 6]: 4.4 pM
